Test results from patent publication US10548877B2, “Aromatic ring compound” (TAKEDA PHARMACEUTICAL COMPANY LIMITED, priority 2016, dated 2020).

Biological target: T1, human M1 receptor (hCHRM1) (Homo sapiens, UniProt P11229)
T1 construct: expressed in transfected cells
T1 sequence (P11229 1-460): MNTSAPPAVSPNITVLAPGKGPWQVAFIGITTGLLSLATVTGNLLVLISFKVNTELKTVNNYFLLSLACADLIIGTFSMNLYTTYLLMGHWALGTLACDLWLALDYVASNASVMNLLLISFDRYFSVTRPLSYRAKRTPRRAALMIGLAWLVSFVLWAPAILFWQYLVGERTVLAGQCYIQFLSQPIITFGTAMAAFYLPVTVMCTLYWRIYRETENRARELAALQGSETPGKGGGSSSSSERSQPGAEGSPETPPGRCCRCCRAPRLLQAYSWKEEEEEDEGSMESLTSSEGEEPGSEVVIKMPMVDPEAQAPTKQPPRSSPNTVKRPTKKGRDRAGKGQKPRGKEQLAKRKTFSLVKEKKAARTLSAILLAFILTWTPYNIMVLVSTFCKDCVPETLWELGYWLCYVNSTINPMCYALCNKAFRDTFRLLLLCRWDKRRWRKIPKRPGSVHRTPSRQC
Assay: Measurement of M1 receptor positive allosteric modulator (M1PAM) activity (calcium fluorescence, Fluo-4)
Format: cell-based
Conditions: for EC50: inflection point of concentration-dependent curve, CHO-K1 cells stably expressing hCHRM1, in presence of acetylcholine at EC20 (final 0.8-1.0 nM), read-out: IP value; for activity (%) at 10 μM: test compound 10 μM with acetylcholine at EC20, 100% = 1 μM acetylcholine, 0% = DMSO, CHO-K1 cells expressing hCHRM1
Description: Measurement of M1 Receptor Positive Allosteric Modulator (M1PAM) Activity
The activity of a test compound in the presence of acetylcholine at EC20 concentration (final concentration 0.8-1.0 nM), which affords an action corresponding to about 20% of the maximum activity, was measured as PAM activity. The method is as follows. CHO-K1 cells stably expressing a human M1 receptor (hCHRM1) were plated on a 384-well black clear bottom plate (BD Falcon) at 5,000 cells/well, and cultured in an incubator at 37° C., 5% CO2 for 1 day. The medium in the cell plate was removed, and assay buffer A containing a calcium indicator (Recording medium (DOJINDO LABORATORIES), 0.1% BSA (Wako Pure Chemical Industries, Ltd.), 2.5 μg/mL Fluo-4 AM (DOJINDO LABORATORIES), 0.08% Pluronic F127 (DOJINDO LABORATORIES) and 1.25 mM probenecid (DOJINDO LABORATORIES) were added at 30 μL/well. The cells were left standing in the incubator at 37° C., 5% CO2 for 30 min, and further left standing at room temperature for 30 min. A test compound prepared by diluting with assay buffer B (HBSS (Invitrogen), 20 mM HEPES (Invitrogen), 0.1% BSA) containing 3.2-4.0 nM acetylcholine was added at 10 μL/well, and the fluorescence was measured by FDSS/pcell (Hamamatsu Photonics K.K.) for 1 min every for 1 second. With the definition that the amount of change in the fluorescence on addition of acetylcholine (final concentration 1 μM) is 100% and that on addition of DMSO instead of a test compound is 0%, the activity (%) of the test compound was calculated, and the inflection point in the concentration-dependent curve of the test compound was calculated as IP values.

SMILES	EC50 [µM]	activity (%) at 10 μM [%]
Cc1c(Cc2ccc(-c3cn(C)nn3)cc2)cc(C(=O)N[C@H]2CCCC[C@@H]2O)c(OCC2CC2)c1C [Example 17, 2-(cyclopropylmethoxy)-N-((1S,2S)-2-hydroxycyclohexyl)-3,4-dimethyl-5-(4-(1-methyl-1H-1,2,3-triazol-4-yl)benzyl)benzamide]	0.04	99
Cc1c(Cc2ccc(-c3cn(C)nn3)cc2)cc(C(=O)N[C@H]2CCCC[C@@H]2O)c(OC(C)C)c1C [Example 16, N-((1S,2S)-2-hydroxycyclohexyl)-2-isopropoxy-3,4-dimethyl-5-(4-(1-methyl-1H-1,2,3-triazol-4-yl)benzyl)benzamide]	0.03	99
COc1c(C(=O)NCC2CCCO2)cc(Cc2ccc(-c3cn(C)nn3)cc2)c(C)c1C (stereo not shown) [Example 6, 2-methoxy-3,4-dimethyl-5-(4-(1-methyl-1H-1,2,3-triazol-4-yl)benzyl)-N-(tetrahydrofuran-2-ylmethyl)benzamide]	0.023	107
COc1c(C(=O)N[C@H]2COCC[C@@H]2O)cc(Cc2ccc(-c3cn(C)nn3)cc2)c(C)c1C [Example 13, N-((3S,4S)-4-hydroxytetrahydro-2H-pyran-3-yl)-2-methoxy-3,4-dimethyl-5-(4-(1-methyl-1H-1,2,3-triazol-4-yl)benzyl)benzamide]	0.0094	102
Cc1c(Cc2ccc(-c3cscn3)cc2)cc(C(=O)N[C@H]2COCC[C@@H]2O)c(F)c1C [Example 32, 1,5-anhydro-2,4-dideoxy-2-((2-fluoro-3,4-dimethyl-5-(4-(1,3-thiazol-4-yl)benzyl)benzoyl)amino)-L-threo-pentitol]	0.016	101
COc1c(C(=O)N[C@H]2COCC[C@@H]2O)cc(Cc2ccc(-c3cn(C)nc3C)cc2)c(C)c1C [Example 29, 1,5-anhydro-2,4-dideoxy-2-((5-(4-(1,3-dimethyl-1H-pyrazol-4-yl)benzyl)-2-methoxy-3,4-dimethylbenzoyl)amino)-L-threo-pentitol]	0.048	97
COc1c(C(=O)N[C@H]2CCC[C@@H]2O)cc(Cc2ccc(-c3cn(C)nn3)cc2)c(C)c1C (relative stereo) [Example 4, N-(trans-2-hydroxycyclopentyl)-2-methoxy-3,4-dimethyl-5-(4-(1-methyl-1H-1,2,3-triazol-4-yl)benzyl)benzamide]	0.023	108
COc1c(C(=O)N[C@H]2CCC[C@@H]2O)cc(Cc2ccc(-c3ccn(C)n3)nc2)c(C)c1C [Example 22, N-((1S,2S)-2-hydroxycyclopentyl)-2-methoxy-3,4-dimethyl-5-((6-(1-methyl-1H-pyrazol-3-yl)pyridin-3-yl)methyl)benzamide]	0.055	95
COc1c(C(=O)N[C@@H]2CCCC[C@H]2O)cc(Cc2ccc(-c3cn(C)nn3)cc2)c(C)c1C (single isomer, unassigned) [Example 11, N-(trans-2-hydroxycyclohexyl)-2-methoxy-3,4-dimethyl-5-(4-(1-methyl-1H-1,2,3-triazol-4-yl)benzyl)benzamide]	0.037	97
COc1c(C(=O)N[C@H]2CCCC[C@@H]2O)cc(Cc2ccc(-c3cn(C)nn3)cc2)c(C)c1C (relative stereo) [Example 5, N-(trans-2-hydroxycyclohexyl)-2-methoxy-3,4-dimethyl-5-(4-(1-methyl-1H-1,2,3-triazol-4-yl)benzyl)benzamide]	0.012	105
Cc1c(Cc2ccc(-c3cn(C)nn3)cc2)cc(C(=O)N[C@H]2CCCC[C@@H]2O)c(OC(F)F)c1C [Example 18, 2-(difluoromethoxy)-N-((1S,2S)-2-hydroxycyclohexyl)-3,4-dimethyl-5-(4-(1-methyl-1H-1,2,3-triazol-4-yl)benzyl)benzamide]	0.027	97
Cc1c(Cc2ccc(-n3cccn3)nc2)cc(C(=O)N[C@H]2CCCC[C@@H]2O)c(F)c1C [Example 20, 2-fluoro-N-((1S,2S)-2-hydroxycyclohexyl)-3,4-dimethyl-5-((6-(1H-pyrazol-1-yl)pyridin-3-yl)methyl)benzamide]	0.031	97
Cc1c(Cc2ccc(-n3cccn3)nc2)cc(C(=O)N[C@H]2CCC[C@@H]2O)c(F)c1C [Example 19, 2-fluoro-N-((1S,2S)-2-hydroxycyclopentyl)-3,4-dimethyl-5-((6-(1H-pyrazol-1-yl)pyridin-3-yl)methyl)benzamide]	0.084	93
COc1c(C(=O)N[C@H]2CCCC[C@@H]2O)cc(Cc2ccc(-n3ccnn3)cc2)c(C)c1C [Example 14, N-((1S,2S)-2-hydroxycyclohexyl)-2-methoxy-3,4-dimethyl-5-(4-(1H-1,2,3-triazol-1-yl)benzyl)benzamide]	0.0086	98
